The values below come from BindingDB's records for doi:10.3109/14756366.2012.715287 (Atatürk University, 2013).

Serum paraoxonase/arylesterase 1, sequence (P27169 whole entry): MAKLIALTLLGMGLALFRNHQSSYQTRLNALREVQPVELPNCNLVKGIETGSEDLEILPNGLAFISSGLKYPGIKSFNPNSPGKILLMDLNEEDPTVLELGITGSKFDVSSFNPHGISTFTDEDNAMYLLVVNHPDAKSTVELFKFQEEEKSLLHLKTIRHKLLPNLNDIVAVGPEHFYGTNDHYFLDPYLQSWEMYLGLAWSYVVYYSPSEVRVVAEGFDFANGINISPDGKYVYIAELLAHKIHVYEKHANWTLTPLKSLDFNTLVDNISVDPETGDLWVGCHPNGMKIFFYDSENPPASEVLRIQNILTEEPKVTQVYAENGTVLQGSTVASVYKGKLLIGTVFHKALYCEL

The experiment has as its target Serum paraoxonase/arylesterase 1 (Homo sapiens, UniProt P27169). Kind of experiment: Enzyme Activity Assay. As to the method: The enzyme assay was based on the estimation of p-nitrophenol at 412 nm. Paraoxonase activity was determined spectrophotometrically using the same procedure in our previous studies [Ekinci et al., Eur. J. Pharmacol., 617:84-89]. One enzyme unit was defined as the amount of enzyme that catalyzes the hydrolysis of 1 μmol of substrate at 25°C.
In general, IC50 refers to the concentration needed to halve the response being measured. The low end stands for greater potency in that assay, the high end for weaker potency in that assay. In turn, `COc1cc(Br)c(C(=O)c2c(Br)c(Br)cc(OC)c2OC)cc1OC` [(2-Bromo-4,5-dimethoxyphenyl)(2,3-dibromo-5,6-dimethoxyphenyl)methanone (8)] had an IC50 of 123 µM.

As to `O=C(c1cc(O)c(O)cc1Br)c1c(O)c(O)cc(Br)c1Br` [(2-Bromo-4,5-dihydroxyphenyl)(2,3-dibromo-5,6-dihydroxyphenyl)methanone (11)], half-maximal inhibition (IC50) was put at 1110 µM. This IC50 lies about 9-fold higher than the previous one.

`O=C(c1cc(O)c(O)c(Br)c1)c1c(O)c(O)cc(Br)c1Br` [(3-Bromo-4,5-dihydroxyphenyl)(2,3-dibromo-5,6-dihydroxyphenyl)methanone (12)] came in with a half-maximal inhibitory concentration (IC50) of 701 µM.

`COc1cc(C(=O)c2c(Br)c(Br)cc(OC)c2OC)cc(Br)c1OC` [(3-Bromo-4,5-dimethoxyphenyl)(2,3-dibromo-5,6-dimethoxyphenyl)methanone (9)]: 125 µM corresponded to half-maximal inhibition (IC50).

`COc1ccc(C(=O)c2c(Br)c(Br)cc(OC)c2OC)cc1OC` [(2,3-dibromo-5,6-dimethoxyphenyl)(3,4-dimethoxyphenyl)methanone (7)] returned an IC50 of 174 µM.

In turn, `O=C(c1ccc(O)c(O)c1)c1c(O)c(O)cc(Br)c1Br` [(2,3-Dibromo-5,6-dihydroxyphenyl)(3,4-dihydroxyphenyl)methanone (10)] gave an IC50 of 832 µM.

`COc1ccc(C(=O)c2cccc(OC)c2OC)cc1OC` [(2,3-dimethoxyphenyl)(3,4-dimethoxyphenyl)methanone (6)] registered a concentration for half-maximal inhibition (IC50) of 1210 µM.
